Here are results for six compounds from patent US11802107B2, “Compounds and methods of use” (Signum Biosciences, Inc., priority 2017, dated 2023).

The IC50 is the concentration that inhibits the measured activity by half. What is called inhibition is the percentage by which the read-out fell short of the control.

The subject of one assay is Swiss Webster (ICR) mice. Description: TPA-induced skin irritation in vivo model (mouse ear). To be noted: 24 hour. The protocol: Outbred male Swiss Webster (ICR) mice were purchased from Hilltop Lab Animals (Scottdale, PA) and were used between 10 and 12 weeks of age and we followed a similar protocol previously described (Gordon et al., 2008). Mice received 1.2 μg/20 μl TPA dissolved in acetone (10 μl applied both to the dorsal and ventral surfaces of the mouse ear using a solvent pipette) to each ear to induce acute irritation (6 per group). Test Materials were co-treated with TPA or applied 5 minutes after TPA dose, at various concentrations (0.6 to 800 μg/20 μl) in ethanol. After 24 hour treatment, edema was measured by ear thickness.

In the next assay the test system is IFNγ. Description: PHA-induced IFNγ on PBMCs. The class given is cell-based. The following applies: Homo sapiens, PBMC, PHA-L 20 μg/mL, 24 hours, ELISA. On the procedure: Cryopreserved human Peripheral Blood Mononuclear cells (PBMCs) from healthy adult donors were obtained from Zen Bio, Inc (Cat No. SER-PBMC-F). Cells were cultured in 96-well plates with lymphocyte media (Cat No. LYMPH-1) and were pre-treated with test materials (≤100 μM) for 2 hours and later co-treated with test materials and PHA-L (Sigma Aldrich, Cat No. 11249738001) at 20 μg/mL and incubated for 24 hours at 37° C. and 5% CO2. After incubation, cell media supernatants were harvested and used to measure cytokine levels (IL-2, IFNγ) using ELISA kits (R&D Systems® #DY202, #DY285). Results were represented as percent of inhibition relative to untreated and PHA-only treated cells. IC50 values were determined by non-linear regression analysis using the four-parameter logistic equation.

The next assay concerns IL17A (IL-17A). Put plainly: P. acnes-induced IL-17 gene on human PBMCs (qPCR). The class given is cell-based. To be noted: PBMC, PBMCs + live P. acnes 1:1, test material 30 PM, 24 hours. The protocol:
(§1) Cryopreserved human Peripheral Blood Mononuclear cells (PBMCs) from healthy adult donors were obtained from Zen Bio, Inc (Cat No. SER-PBMC-F). Cells were cultured in 12-well plates with lymphocyte media (Cat No. LYMPH-1) and incubated with test materials ([…]) and live P. acnes (ATCC® 6919TM) at 1:1 PBMC: P. acnes bacteria ratio for 24 hours at 37° C. and 5% CO2. After incubation, cell media supernatants were harvested and used to measure pro-inflammatory cytokine levels (IL-8, TNF-α, IL-1b, IL-17) using ELISA kits (BD Biosciences® #557966, #555212, #555244; R&D Systems® #DY317). Total RNA was extracted from cells using the RNAqueous® kit (Ambion®; Cat No. 1912) and cDNA was obtained using the High Capacity RNA-to-cDNA kit (Applied Biosystems®; Cat No. 4387406). Quantitative PCR (qPCR) was performed using the TaqMan® Fast Advanced Master Mix (Applied Biosystems®; Cat No. 4444556) and specific TaqMan®-probes human gene primers CXCL8 (IL-8), IL1B (IL-1b), TNF (TNF-α), IL17A (IL-17A) and GAPDH to calculate the relative gene fold expression change per treatment. Gene expression analysis was performed using the comparative Ct method (also known as the 2-[delta][delta]Ct) approach by comparing the Ct values of P. acnes-only treated cells with the untreated samples and normalized to GAPDH gene expression as endogenous housekeeping gene.
Background: In qPCR the cycle at which signal appears reflects the starting amount.

For the next assay, the system named is IL-5. Put plainly: T-cell receptor (anti-CD3/CD28)-induced IL-5 on PBMCs. Format: cell-based. To be noted: Homo sapiens, PBMC, anti-CD3/CD28 beads, 24 hours, ELISA, read-out: TCR-PBMCs IL-5 Protein IC50. On the procedure: (§2) Cryopreserved human Peripheral Blood Mononuclear cells (PBMCs) from healthy adult donors were obtained from Zen Bio, Inc (Cat No. SER-PBMC-F). Cells were cultured in 96-well plates with lymphocyte media (Cat No. LYMPH-1) and were pre-treated with test materials (≤100 μM) for 2 hours and later co-treated with test materials and anti-CD3/CD28 beads (Thermo-Fisher; Cat No. 11131D) at 1:0.4 PBMC:bead ratio for 24 hours at 37° C. and 5% CO2. After incubation, cell media supernatants were harvested and used to measure cytokine levels (IL-4, IL-5, IL-10) using ELISA kits (BD Biosciences® #555194, #555157; R&D Systems® #DY317). Results were represented as percent of inhibition relative to untreated and anti-CD3/CD28 beads-only treated cells. IC50 values were determined by non-linear regression analysis using the four-parameter logistic equation.
In general terms: ELISA stands for enzyme-linked immunosorbent assay.

The next assay deals with IL-4. Put plainly: T-cell receptor (anti-CD3/CD28)-induced IL-4 on PBMCs. The class given is cell-based. To be noted: Homo sapiens, PBMC, anti-CD3/CD28 beads, 24 hours, ELISA, read-out: TCR-PBMCs IL-4 Protein IC50. The protocol: as §2
The next assay concerns CXCL8 (IL-8). Put plainly: P. acnes-induced IL-8 gene on human PBMCs (qPCR). The following applies: PBMC, PBMCs + live P. acnes 1:1, test material 30 PM, 24 hours. The class given is cell-based. On the procedure:
as §1

In another assay the test system is IL-13. Put plainly: Concanavalin-A-induced IL-13 on PBMCs. To be noted: Homo sapiens, PBMC, ConA, 24 hours, ELISA. Format: cell-based.
The test system of the next assay is IL-17. Description: Concanavalin-A-induced IL-17 on PBMCs. To be noted: Homo sapiens, PBMC, ConA, 24 hours, ELISA. The class given is cell-based.
For another assay, the system named is TSLP. Put plainly: S. aureus-induced TSLP on NHEKs. The class given is cell-based. The following applies: Homo sapiens; NHEK, live S. aureus ATCC 33591 1:1, 24 hours, ELISA; read-out: S. aureus-NHEK TSLP Protein IC50. The protocol: Normal human epidermal keratinocytes (NHEKs) from neonatal donors were obtained from Thermo-Fisher (Cat No. C-001-5C). Cells were cultured in 96-well plates for 24 hours with EpiLife media (Cat No. MEPI500CA) supplemented with keratinocytes growth supplement (Cat No. 50015). On Day 2, media was removed and replaced with supplement-depleted medium for 24 hours. On Day 3, media was removed and cells were pre-treated with test materials (≤[…]) for 2 hours and later co-treated with test materials and live S. aureus (ATCC® 33591) at 1:1 NHEK:bacteria ratio for 24 hours at 37° C. and 5% CO2. After incubation, cell media supernatants were harvested and used to measure TSLP levels using ELISA kit (R&D Systems® #DY1398). Results were represented as percent of inhibition relative to untreated and S. aureus-only treated cells. IC50 values were determined by non-linear regression analysis using the four-parameter logistic equation.

For a further assay, the system named is IL1B (IL-1b). Description: P. acnes-induced IL-1b gene on human PBMCs (qPCR). Format: cell-based. To be noted: PBMC, PBMCs + live P. acnes 1:1, test material 30 PM, 24 hours. On the procedure:
as §1

For a further assay, the system named is IL-8. Put plainly: P. acnes-induced IL-8 protein on human PBMCs (ELISA). Format: cell-based. To be noted: PBMCs + live P. acnes 1:1, test material 30 PM, 24 hours. On the procedure:
as §1

Setting [1] is: topical @ 1% w/v, ear thickness.

Molecules are shown by their SMILES.

Turning to `C/C(=C\CSC[C@H](NC(=O)COCC(=O)O)C(=O)O)CCCC(C)CCCC(C)CCCC(C)C` (some centres unmarked) [Compound T], in the assay on Swiss Webster (ICR) mice (topical @ 1% w/v), the MPO (% inhibition) came to 83%. This compound also registered an Edema (% inhibition) with Swiss Webster (ICR) mice (setting [1]) of 61%. Besides, the IC50 in the assay on IFNγ was greater than 10 µM; in the assay with IL-5, 9 µM; in the assay on IL-4, 25 µM; with IL-13 it was 0.1 µM; with IL-17, 69.7 µM; in the assay with TSLP, 10 µM. The inhibition at 30 pM in the assay with IL17A (IL-17A) turned out to be 0%; in the assay on CXCL8 (IL-8) it was 0%; with IL1B (IL-1b) it was 27%.

In the case of `C/C(=C\CSC[C@H](NC(=O)N1CCC[C@H]1C(=O)O)C(=O)O)CCCC(C)CCCC(C)CCCC(C)C` (some centres unmarked) [Compound E], the IC50 with IFNγ came out at 1.4 µM; in the assay with IL-5, 63 µM; in the assay on IL-4, 42 µM; in the assay with IL-13, 1.5 µM; with IL-17 it was 11.4 µM. Further, the inhibition at 30 pM in the assay with IL17A (IL-17A) was determined as 0%; with CXCL8 (IL-8) it was 8%; with IL1B (IL-1b) it was 20%. In the assay with IL-8, the “IL-8 Protein % inhibition” value worked out at 67%.

The compound `C/C(=C\CSCC(NC(=O)NCC(=O)O)C(=O)O)CCCC(C)CCCC(C)CCCC(C)C` (centres unmarked) [A] gave an Edema (% inhibition) in the assay with Swiss Webster (ICR) mice (setting [1]) of 50%. The IC50 in the assay with IL-5 was 55 µM; in the assay on IL-4, greater than 100 µM; in the assay on TSLP it was 9 µM.

In turn, `N#Cc1ccc(Oc2ccc3c(c2)COB3O)cc1` [AN2728, reference compound] displayed an Edema (% inhibition) in the assay with Swiss Webster (ICR) mice (topical, AN2728 at 2%) of 43%. In addition, the IC50 in the assay on IFNγ stood at 0.3 µM; in the assay with IL-5, 1 µM; with IL-4, 2 µM; in the assay on IL-13, 3.8 µM; in the assay with IL-17, 3.1 µM; with TSLP it was 5 µM.

With `C/C(=C\CSCC(NC(=O)N(CC(=O)O)CC(=O)O)C(=O)O)CCCC(C)CCCC(C)CCCC(C)C` (centres unmarked) [Compound G], the IC50 in the assay with IFNγ was greater than 10 µM; in the assay with IL-13 it was 0.02 µM; in the assay with IL-17, 94.2 µM. The inhibition at 30 pM came out at 0% in the assay with IL17A (IL-17A), 0% with CXCL8 (IL-8) and 10% in the assay with IL1B (IL-1b). Moreover, in the assay with IL-8, the “IL-8 Protein % inhibition” value is on record as 74%.

As for `C/C(=C\CSC[C@H](NC(=O)N(C)CC(=O)O)C(=O)O)CCCC(C)CCCC(C)CCCC(C)C` (stereo partly drawn) [Compound C, (2R)-2-{[(carboxymethyl)(methyl)carbamoyl]amino}-3-{[(2E)-3,7,11,15-tetramethylhexadec-2-en-1-yl]sulfanyl}propanoic acid], the MPO (% inhibition) in the assay with Swiss Webster (ICR) mice (topical @ 1% w/v) was found to be 88%. The compound also had an Edema (% inhibition) with Swiss Webster (ICR) mice (setting [1]) of 64%. Moreover, the IC50 with IFNγ is greater than 10 µM; in the assay on IL-5 it was 46 µM; in the assay with IL-4, 20 µM; in the assay on IL-13, 8.2 µM; with IL-17, 0.5 µM; in the assay with TSLP it was 3 µM. For the same compound, the inhibition at 30 pM in the assay with IL17A (IL-17A), in the assay on CXCL8 (IL-8) and in the assay on IL1B (IL-1b) was 0% throughout. Moreover, the “IL-8 Protein % inhibition” value in the assay with IL-8 is on record as 8%.
